Data taken from patent US10052318B2, “Glutamate agents in the treatment of mental disorders” (YALE UNIVERSITY, priority 2005, dated 2018).

Columns and labels:
[1] = test system: transgenic mice expressing cholera toxin subunit in dopamine D1 receptor-expressing limbic cortical cells; conditions: cited from earlier work; for perseverative (OCD-like) behaviors: baseline behaviors of the transgenic mice
[2] = test system: patient with SRI-refractory OCD; assay: Case report two: N-acetylcysteine augmentation of fluvoxamine in SRI-refractory OCD; type: in vivo, human
From the text: A person presented to our clinic seeking help for persistent and severe OCD symptoms. Diagnosis of OCD was confirmed using the Structured Clinical Interview for DSM-IV Axis I Disorders-Clinician Version. First et al., Structured clinical interview for DSM-IV Axis I Disorders (SCID-I Clinician Version), American Psychiatric Press, Inc., Washington, D.C., 1997. After informed consent, a person was admitted to the Clinical Neuroscience Research Unit of the Abraham Ribicoff Research Facilities (New Haven, Conn.) and treated clinically with an off-label use of NAC augmentation of fluvoxamine. OCD symptoms were followed using weekly Yale-Brown Obsessive-Compulsive Scale (Y-BOCS) ratings. NAC (United States Pharmacia grade and in capsule form) was initiated at a starting dose of 600 mg PO daily and titrated upward to a total daily dose of 3 grams per day over 6 weeks. NAC was continued at the dose of 3 grams per day for an additional seven weeks. Fluvoxamine 300 mg was continued throughout the NAC treatment period. A person remained on the inpatient unit throughout the treatment period and received supportive psychotherapy. […] In fact, they were resistant to implementing behavioral interventions given the past failure of such interventions.

[3] = test system: C57BL/6J mice; assay: Tail suspension test; type: in vivo; conditions: after 7 days, 1 injection/day, versus saline
[4] = test system: glial glutamate uptake transporter; conditions: Rothstein et al., Nature 2005; cited from earlier work
[5] = test system: animal model of Amyotrophic Lateral Sclerosis (ALS); conditions: by increasing glutamate transport, L-[3H] glutamate uptake into cortical membrane; Rothstein et al. 2005; cited from earlier work
[6] = test system: patients with anxiety symptoms; assay: Riluzole addition in patients with anxiety and mood symptoms (HAM-A); type: in vivo, human
[7] = test system: patient with Trichotillomania; assay: Case report: riluzole addition in trichotillomania; type: in vivo, human
[8] = test system: patient with severe, chronic TTM; assay: Case report one: riluzole in trichotillomania and recurrent major depression; type: in vivo, human
[9] = test system: patients with treatment-resistant depression; assay: Riluzole addition in control group with treatment-resistant depression; conditions: control group with treatment-resistant depression alone

## NS(=O)(=O)c1cccc2c1c([N+](=O)[O-])cc1nc(O)c(O)nc12 [NBQX]
[1]
  perseverative (OCD-like) behaviors: does not affect
[1]; transgenic mice given MK-801
  worsening of OCD-like behaviors induced by MK-801: does not attenuate

## CC(=O)N[C@@H](CS)C(=O)O [NAC, N-acetylcysteine]
[2]; NAC 600 mg daily titrated to 3 grams per day over 6 weeks, continued seven weeks, fluvoxamine 300 mg
  Y-BOCS score: dramatically decreased
[2]; NAC up to 3 grams per day
  side effects: a few episodes of mild, brief right hand tingling and a single day of xerostomia
[2]; over the course of admission
  routine lab monitoring: no further abnormalities
[2]; two month follow-up visit, same dose of NAC and fluvoxamine
  OCD symptoms at follow-up: remained improved

## CO/N=C(\C(=O)N[C@@H]1C(=O)N2C(C(=O)O)=C(CSc3nc(=O)c(=O)[nH]n3C)CS[C@H]12)c1csc(N)n1 [Ceftriaxone, ceftriaxone]
[3]; C57BL/6J males, 10 animals/group
  decrease in the immobility time: ~20%
[3]
  bouts of immobility: decreased bouts of immobility
  latency: trend for increased latency
[4]
  upregulation of the glial glutamate transporter: upregulated the glial glutamate transporter more so than many other drugs
[5]
  neuroprotection: neuroprotective

## C[C@]12N[C@H](Cc3ccccc31)c1ccccc12 [MK-801]
[1]
  perseverative (OCD-like) behaviors: worsen

## Nc1nc2ccc(OC(F)(F)F)cc2s1 [Riluzole, riluzole]
[6]; Subjects P3, P5, P6, P7, P11, P12
  reduction in HAM-A scores post study treatment: ≥ 35%
[6]; riluzole 50 mg twice a day
  HAM-A scores for the group over time: significantly improved
  tolerability / adverse effects: well tolerated with no serious adverse effects noted
[6]; thirteen participants, before riluzole
  Mean Pre-Treatment HAM-A: 18.2+/−6.2
[6]; thirteen participants, riluzole 50 mg twice a day added to existing pharmacotherapy
  Mean Post-Treatment HAM-A: 12.8+/−7.2
[7]; A person, riluzole up to 100 mg twice a day
  Trichotillomania symptoms: cessation of Trichotollomania symptoms
[7]; after 6 weeks of riluzole addition to Lexapro 30 mg, 50 mg titrated to 100 mg twice a day
  Reduction in PITS score: 74%
[7]; after 12 weeks of treatment with riluzole
  Reduction in MGH Pulling Scale Score: > 35%
[8]; 72 weeks after initiating riluzole, 100 mg twice a day
  urges to pull hair at follow-up: minimal and readily ignored
[8]; at presentation PITS 23, MGH 17, after up-titration of riluzole
  TTM ratings (PITS, MGH Hairpulling Scale): corresponding fall
[8]; before riluzole, on escitalopram 30 mg daily
  HAM-D at presentation: 26
[8]; week 16, riluzole titrated from 50 mg twice a day to 200 mg daily
  HAM-D: 7
[8]; with up-titration of riluzole to 150 mg and then 200 mg daily
  urges to pull hair: vanished entirely
[9]
  HAM-D scores in response to riluzole: significant improvement
